Measurements reported in patent US5686424A, “2-oxoethyl derivatives as immunosuppressants” (Miles Inc., priority 1995, dated 1997).
Read-outs that look alike come from different tables or passages of the source.

Test system: human T-cells
Assay: Suppression of Human T-Cell Proliferation Assay (PHA-stimulated, [3H]-thymidine incorporation)
Assay type: cell-based
Details: TABLE 2
How it was run: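 Read-out is scintillation counting of [3H]-thymidine pulsed for the last 6 h of a 72 h, 37° C culture. Human T-cells, isolated from LeukoPaks by Lymphoprep and sheep-erythrocyte rosetting, were PHA-M activated (40 μg/ml stock) with compound dilutions added in duplicate wells.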

[1] = read-out: concentrations that suppress the T-cell proliferative response by 50%
[2] = concentration inhibiting [3H]-thymidine incorporation of PHA-stimulated T-cells by 50%, 72 hours, read-out: IC50

Row | SMILES | IC50 [1] | IC50 [2]
1 | CC[C@H](C)[C@H](NC(=O)[C@@H]1CCCN1CC(=O)O[C@H](c1ccccc1)C(C)C)C(=O)NCc1ccccc1 [Example 92, L-Isoleucine, N-[1-(2-(2-Methyl-1-(S)-Phenyl-1-Propoxy)-2-Oxoethyl)-L-Prolyl] Benzylamide] | < 10 µM | 6 µM
2 | CC[C@H](C)[C@H](NC(=O)[C@@H]1CCCN1CC(=O)C1CC2CC(C1C)C2(C)C)C(=O)NCc1ccccc1 (stereo partly drawn) [Example 41, L-Isoleucine, N-[1-[2-(2,6,6-Trimethyl-Bicyclo[3.1.1]hept-3-yl)-2-Oxoethyl]-L-Prolyl] Benzylamide] | < 10 µM | 6 µM
3 | CC[C@H](C)[C@H](NC(=O)[C@@H]1CCCN1CC(=O)NC1C2CC3CC(C2)CC1C3)C(=O)NCc1ccccc1 (stereo partly drawn) [Example 90, L-Isoleucine, N-[1-(Adamantan-2-ylcarbamoylmethyl)-L-Prolyl] Benzylamide] | < 10 µM | 6 µM
4 | CC[C@H](C)[C@H](NC(=O)[C@@H]1CCCN1CC(=O)C12CC3CC(CC(C3)C1)C2)C(=O)N[C@H](C)c1ccccc1 [Example 66, L-Isoleucine, N-[1-(2-Adamantan-1-yl-2-Oxoethyl)-L-Prolyl] alpha-(R)-methylbenzylamide] | < 10 µM | 3 µM
5 | O=C(NCc1ccccc1)[C@H](COCc1ccccc1)NC(=O)[C@@H]1CCCN1CC(=O)C12CC3CC(CC(C3)C1)C2 [Example 62, L-Serine-(O-Benzyl Ether), N-[1-(2-Adamantan-1-yl-2-Oxoethyl)-L-Prolyl] Benzylamide] | < 10 µM | 4 µM
6 | CC[C@H](C)[C@H](NC(=O)[C@@H]1CCCN1CC(=O)NC12CC3CC(CC(C3)C1)C2)C(=O)NCc1ccccc1 [Example 39, L-Isoleucine, N-[1-(2-Aminoadamant-1-yl-2-oxoethyl)-L-Prolyl] Benzylamide] | < 10 µM | 6 µM
7 | O=C(CC(NC(=O)[C@@H]1CCCN1CC(=O)C12CC3CC(CC(C3)C1)C2)c1ccccc1)NCc1ccccc1 (stereo partly drawn) [Example 63, L-β-Phenylalanine, N-[1-(2-Adamantan-1-yl-2-Oxoethyl)-L-Prolyl] Benzylamide] | < 10 µM | 6 µM
8 | CC[C@H](C)[C@H](NC(=O)[C@@H]1CCCN1CC(=O)O[C@@H](c1ccccc1)C(C)C)C(=O)NCc1ccccc1 [Example 93, L-Isoleucine, N-[1-(2-(2-Methyl-1-(R)-Phenyl-1-Propoxy)-2-Oxoethyl)-L-Prolyl] Benzylamide] | < 10 µM | 6 µM
